Reference: patent US20200338028A1, “BENZENESULFONAMIDE DERIVATIVES AND METHOD FOR MODULATING LIPID RAFT” (Gongwin Biopharm Co., Ltd., priority 2017, published 2020)
Like-named read-outs stand apart in the source and are kept apart here.

Key:
[1] = system: DU-145 cells; experiment: Western blot of Bcl-2 family members, cell cycle regulators and Akt/mTOR/p70S6K pathway signals; assay type: cell-based, human
Description: (§1) In addition, protein expression assay of each Mcl-1, Bcl-2, Bid, PUMA and Bak was performed by western blotting with methods described as follows. After treatment of PC-3 and DU145 cells with p-TSA, the cells were harvested with trypsinization, centrifuged and lysed in 0.1 ml of lysis buffer containing 10 mM Tris-HCl (pH 7.4), 150 mM NaCl, 1 mM EGTA, 1% Triton X-100, 1 mM PMSF, 10 μg/ml leupeptin, 10 μg/ml aprotinin, 50 mM NaF and 100 μM sodium orthovanadate. Total protein was quantified, mixed with the sample buffer and boiled at 90° C. for 5 min. Equal amount of protein (30 μg) was separated by electrophoresis in 8% or 12% SDS-PAGE, transferred to PVDF membranes and detected with specific antibodies (1:1000 dilution) for each of Mcl-1, Bcl-2, Bid, PUMA and Bak proteins. The immunoreactive proteins after incubation with appropriately labeled secondary antibody (1:3000 dilution) were detected with an enhanced chemiluminescence detection kit (Amersham, Buckinghamshire, United Kingdom). […] These effects were correlated with the mitochondrial stress.
(§2) During G1 phase, cells grow in size and synthesize mRNA and proteins which are necessary to DNA synthesis. The serine/threonine kinases mTOR and p70S6K that regulate protein synthesis (mRNA translation) through affecting the phosphorylation or activities of several downstream translation factors are critical regulators in G1 phase. Protein expression assay of each Akt, mTOR 4E-BP1 and p70S6K was performed by Western blotting.

[2] = system: PC-3 cells; experiment: as above; assay type: cell-based, human
Description: as §1, §2

[3] = system: PC-3 cells; experiment: SRB assay, anti-proliferative effect; assay type: cell-based; details: Homo sapiens
Description: Two castration-resistant prostate cancer (CRPC) cell lines of PC-3 and DU-145 were cultured in RPMI 1640 medium with 5% FBS (v/v), penicillin (100 units/ml) and streptomycin (100 μg/ml). Cultures were maintained in a 37° C. incubator with 5% CO2, and adherent cultures were passaged using 0.05% trypsin-EDTA when they reached about 80% confluence. Prostate cells were from human tissue samples which were obtained following informed consent of the donors and after full review by the Ethics Review Committee at National Taiwan University Hospital. The prostate specimens were from males by transurethral resection of the prostate. All patients with prostatism histories were diagnosed to have benign prostate hyperplasia by rectal digital examination, transrectal sonography of prostate and urodynamic studies. Isolation of human prostatic cells from prostatic tissue explants was described in the previous study. The prostate cells were with less amount lipid rafts compared to prostate cancer cells.
SRB assay, colonogenic assay, and carboxyfluorescein succinimidyl ester (CFSE) staining were used for anti-proliferative determination. SRB assay is an accurate and reproducible assay based upon quantitative SRB staining of cellular proteins, and the process for SRB assay was performed as follows. Each individual PC-3 and DU-145 cells were seeded in 96-well plates in medium with 10% FBS. After 24 h, PC-3 and DU-145 cells were fixed with 10% TCA to represent cell population at the time of p-TSA addition. […] The absorbance of SRB was measured at a wavelength of 515 nm at the time of p-TSA addition (hereinafter referred to as time zero, TZ), and after additional incubation of DMSO (hereinafter referred to as control growth, CTL) or p-TSA (hereinafter referred to as Tx). The percentage of cell growth inhibition was calculated by the formula of [1−(Tx−TZ)/(CTL−TZ)]×100%. […]
To further substantiate the role of Akt, the Myr-Akt overexpressed PC-3 cells were prepared with the method shown as follows. […] Furthermore, the functional rescue of Myr-Akt was determined. […]

[4] = system: DU-145 cells; experiment: JC-1 staining, mitochondrial membrane potential; assay type: cell-based, human; details: DU-145, 24 h, JC-1, FIG. 2B
Description: (§3) Mitochondria generate the majority of ATP to synthesize bioactive components such as proteins, lipids and nucleotides for cell growth and proliferation. The stress onto mitochondria and interference with ATP production have shown to induce cell cycle arrest. Measurement of mitochondrial membrane potential (ΔΨm) was performed as follows. JC-1, a mitochondrial dye staining mitochondria in living cells in a membrane potential-dependent fashion, was used to determine the mitochondrial membrane potential (ΔΨm). PC-3 and DU145 cells were treated with or without p-TSA. Thirty minutes before the termination of incubation, the cells were incubated with JC-1 (final concentration of 5 μM) at 37° C. for 30 min. The cells were finally harvested, and the accumulation of JC-1 was determined using flow cytometric analysis. […] An increase in the permeability of the outer mitochondrial membrane that leads to the release of apoptogenic factors is the key to cell apoptosis. Mitochondrial membrane permeability is directly controlled by Bcl-2 family of proteins.

[5] = system: PC-3 cells; experiment: JC-1 staining, mitochondrial membrane potential; assay type: cell-based, human; details: PC-3, 24 h, JC-1, FIG. 2B
Description: as §3

SMILES: Cc1ccc(S(N)(=O)=O)cc1 [p-TSA, para-toluenesulfonamide]
- phosphorylation of Akt ([1]; DU-145, 6 mM p-TSA): not modified
- p21 and p27 expression ([1]; DU-145, 6 mM p-TSA, FIG. 3A): neither p21 nor p27 expression was modified
- phosphorylation of mTOR, 4E-BP1 and p70S6K ([1]; DU-145, 6 mM p-TSA, FIGS. 3B and 3C): inhibitory effect
- expressions of PUMA and Bak ([1]; DU-145, 24 h, Western blot): increase
- protein expression of Mcl-1 ([1]; DU-145, 24 h, Western blot, FIG. 2D): significantly decreased
- cyclin D1 protein expression ([1]; Rb-mutant DU-145, 6 mM p-TSA, FIG. 3A): decrease
- phosphorylation of Akt ([2]; PC-3, 6 mM p-TSA): inhibited
- Rb phosphorylation ([2]; PC-3, 6 mM p-TSA, FIG. 3A): decrease
- cyclin D1 protein expression ([2]; PC-3, 6 mM p-TSA, FIG. 3A): decrease
- p21 and p27 expression ([2]; PC-3, 6 mM p-TSA, FIG. 3A): neither p21 nor p27 expression was modified
- phosphorylation of mTOR, 4E-BP1 and p70S6K ([2]; PC-3, 6 mM p-TSA, FIGS. 3B and 3C): inhibitory effect
- expressions of PUMA and Bak ([2]; PC-3, 24 h, Western blot): increase
- IC50 ([3]; PC-3, 48 h, PC-3 overexpressing constitutively active Myr-Akt, 48 hours, FIG. 4E, read-out: IC50, growth inhibition, SRB assay): 2180 ± 100 µM
- IC50 ([3]; PC-3, 48 h, PC-3 without Myr-Akt overexpression, 48 hours, FIG. 4E, read-out: IC50, growth inhibition, SRB assay): 1970 ± 10 µM
- IC50 ([3]; PC-3, PC-3, SRB assay, FIG. 1A, read-out: IC50, inhibition of cell growth): ~3000 µM
- mitochondrial membrane potential [4]: concentration-dependent decrease
- mitochondrial membrane potential [5]: concentration-dependent decrease
